From patent publication US11591323B2, “Muscarinic agonists as non-steroidal and non-opioid analgesics and methods of use thereof” (Barry University, priority 2019, dated 2023) come the findings set out here.

The term Emax denotes the maximal effect, on the per cent scale that the assay sets. Usually EC50 stands for the concentration needed to bring the measured effect to its halfway point.

Format in all cases: cell-based
One experiment addresses M3 muscarinic receptor (Homo sapiens, UniProt P20309). As to the kind of experiment: inhibition of forskolin-stimulated cAMP, M3 CHO cells (M3Gi). Details: host or cells: CHO cells, stably transfected. Particulars: for Emax: CHO; for Emax / EC50 / τ / RAi / Kd: M3Gi (↓cAMP); for Emax / EC50 / τ / Kd: Table 8; for effect on forskolin-stimulated production of cAMP: M3, non-preferential response, in words; for RAi: Table 8, relative to carbachol; for Kd: read-out: pKA (converted). The protocol: (§1) Since activation of phospholipase C (PLC) via M2 and M4 receptors is weak, cells were transferred with G15 G-protein to facilitate coupling.
(§2) To determine level of cAMP, cells in suspension were pre-incubated for 1 h with 0.4 μM [^3H]adenine, washed, and incubated for 10 min in the presence of isobutylmethylxanthine and 10 μM forskolin. […] Incubation was ended by addition of 0.2 ml of 2.5 M HCl to the samples. Samples were applied to alumina columns (1.5 g of alumina per column), washed with 2 ml ammonium acetate (pH=7.0) and eluted from columns with 4 ml ammonium acetate and measured by liquid scintillation spectrometry. […] The incubation was stopped by addition of 0.5 ml of chloroform methanol HCl mixture (2:1:0.1). After separation of water and organic phases, 0.6 ml of water phase was applied to Dowex columns (1.5 g of Dowex per column), washed by 20 ml of 60 mM ammonium formate/5 mM sodium borate buffer and eluted from columns with 4 ml of 1M ammonium formate/0.1 formic acid buffer and measured by liquid scintillation spectrometry.
(§3) Measurements of the production of cAMP and inositol phosphates: Levels of second messengers cAMP and inositol phosphates were determined in radiochemical chromatography assays as described previously. To determine level of cAMP, cells in suspension were pre-incubated for 1 h with 0.4 μM [^3H]adenine, washed, and incubated for 10 min in the presence of isobutylmethylxanthine and 10 μM forskolin. […] Incubation was ended by addition of 0.2 ml of 2.5 M HCl to the samples. Samples were applied to alumina columns (1.5 g of alumina per column), washed with 2 ml ammonium acetate (pH=7.0) and eluted from columns with 4 ml ammonium acetate and measured by liquid scintillation spectrometry. […] For this purpose, new CHO cell lines stably expressing promiscuous G15 G-protein and M2 or M4 receptor were generated by transfection with pCMV/hygro vector and hygromycin selection. To determine the rate of formation of inositol phosphates IPX, suspended cells were pre-incubated with 0.1 μM [^3H]myo-inositol for 60 min, washed, and incubated with 10 mM LiCl for 15 min. […] The incubation was stopped by addition of 0.5 ml of chloroform methanol HCl mixture (2:1:0.1). After separation of water and organic phases, 0.6 ml of water phase was applied to Dowex columns (1.5 g of Dowex per column), washed by 20 ml of 60 mM ammonium formate/5 mM sodium borate buffer and eluted from columns with 4 ml of 1M ammonium formate/0.1 formic acid buffer and measured by liquid scintillation spectrometry.
(§4) For bi-phasic response, curves were inhibitory and stimulatory phase were fitted separately. Operational Model of Functional Agonism
(§5) [formula] where y is functional response at concentration of tested compound x, EMAX is maximal response of the system, KA is equilibrium dissociation constant and nH is slope factor. Eq. 5 was fitted to data from functional experiments. Eq. 5 was fitted to data by the two-step procedure described earlier. […] In the second step, Eq. 5 with EMAX fixed to the value determined in the first step was fitted to individual experimental data sets. Relative Intrinsic Activity
(§6) Muscarinic receptors are also able to stimulate non-preferential signalling pathways.

Experiment [1] has as its target T1, M4 muscarinic receptor (Homo sapiens, UniProt P08173).
T1 sequence (P08173 1-479): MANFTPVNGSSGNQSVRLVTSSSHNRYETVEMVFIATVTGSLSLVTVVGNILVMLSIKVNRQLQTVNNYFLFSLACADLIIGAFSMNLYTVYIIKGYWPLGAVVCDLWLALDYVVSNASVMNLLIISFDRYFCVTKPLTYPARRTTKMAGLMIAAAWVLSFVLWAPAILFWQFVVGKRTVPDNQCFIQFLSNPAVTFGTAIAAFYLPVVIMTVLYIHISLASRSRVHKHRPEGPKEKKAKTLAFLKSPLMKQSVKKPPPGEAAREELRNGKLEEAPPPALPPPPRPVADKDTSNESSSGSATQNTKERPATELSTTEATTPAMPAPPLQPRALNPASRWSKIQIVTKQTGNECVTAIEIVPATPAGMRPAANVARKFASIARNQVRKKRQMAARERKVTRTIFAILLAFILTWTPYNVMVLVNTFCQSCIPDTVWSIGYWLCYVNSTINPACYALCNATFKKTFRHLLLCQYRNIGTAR
The experiment can be described thus: accumulation of IPX, M4 CHO cells (M4Gq). On the set-up: host or cells: CHO cells, stably transfected. Particulars: for RAi / E′MAX / τ / Δlog(τ/KA): M4Gq (↑IPX); for RAi: Table 8, relative to carbachol; for E′MAX / τ: Table 8; for Δlog(τ/KA): Table 8, to carbachol. The protocol: as §2, §3, §4, §5

For experiment [2], the target named is T1, M4 muscarinic receptor. The experiment can be described thus: accumulation of IPX, M4 CHO cells with promiscuous G15 G-protein (M4Gq+G15). To be noted: for RAi / E′MAX / τ / Δlog(τ/KA): M4 Gq + G15 (↑IPX); for RAi: Table 8, relative to carbachol; for accumulation of IPX: M4 co-transfected with G15, in words; for E′MAX / τ: Table 8; for Δlog(τ/KA): Table 8, to carbachol. On the set-up: expressed in transfected cells; pCMV/hygro vector, hygromycin selection. The protocol: as §1, §2, §3, §4, §5, §6

A further experiment deals with T2, M2 muscarinic receptor (Homo sapiens, UniProt P08172).
T2 sequence (P08172 1-466): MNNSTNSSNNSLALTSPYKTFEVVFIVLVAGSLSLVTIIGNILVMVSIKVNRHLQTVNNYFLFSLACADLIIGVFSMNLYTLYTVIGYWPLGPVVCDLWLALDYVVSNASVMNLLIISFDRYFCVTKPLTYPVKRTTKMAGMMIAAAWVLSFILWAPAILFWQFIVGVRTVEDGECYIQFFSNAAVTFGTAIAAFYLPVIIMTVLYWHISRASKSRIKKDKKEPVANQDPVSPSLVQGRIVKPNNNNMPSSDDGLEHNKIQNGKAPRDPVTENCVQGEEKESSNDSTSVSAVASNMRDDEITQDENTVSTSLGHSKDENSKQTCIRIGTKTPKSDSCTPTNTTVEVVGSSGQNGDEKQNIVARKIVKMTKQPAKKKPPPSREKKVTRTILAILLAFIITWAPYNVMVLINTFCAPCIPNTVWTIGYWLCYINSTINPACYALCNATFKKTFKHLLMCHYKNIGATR
As to the kind of experiment: accumulation of IPX, M2 CHO cells with promiscuous G15 G-protein (M2Gq+G15). On the set-up: expressed in transfected cells; host or cells: CHO cells, pCMV/hygro vector, hygromycin selection. Particulars: for RAi / E′MAX / τ / Δlog(τ/KA): M2Gq ± G15 (↑IPX); for RAi: Table 8, relative to carbachol; for accumulation of IPX: M2 co-transfected with G15, in words; for E′MAX / τ: Table 8; for Δlog(τ/KA): Table 8, to carbachol. The protocol: as §1, §2, §3, §4, §5, §6

Molecules are shown by their SMILES.

M3 muscarinic receptor, sequence (P20309 whole entry): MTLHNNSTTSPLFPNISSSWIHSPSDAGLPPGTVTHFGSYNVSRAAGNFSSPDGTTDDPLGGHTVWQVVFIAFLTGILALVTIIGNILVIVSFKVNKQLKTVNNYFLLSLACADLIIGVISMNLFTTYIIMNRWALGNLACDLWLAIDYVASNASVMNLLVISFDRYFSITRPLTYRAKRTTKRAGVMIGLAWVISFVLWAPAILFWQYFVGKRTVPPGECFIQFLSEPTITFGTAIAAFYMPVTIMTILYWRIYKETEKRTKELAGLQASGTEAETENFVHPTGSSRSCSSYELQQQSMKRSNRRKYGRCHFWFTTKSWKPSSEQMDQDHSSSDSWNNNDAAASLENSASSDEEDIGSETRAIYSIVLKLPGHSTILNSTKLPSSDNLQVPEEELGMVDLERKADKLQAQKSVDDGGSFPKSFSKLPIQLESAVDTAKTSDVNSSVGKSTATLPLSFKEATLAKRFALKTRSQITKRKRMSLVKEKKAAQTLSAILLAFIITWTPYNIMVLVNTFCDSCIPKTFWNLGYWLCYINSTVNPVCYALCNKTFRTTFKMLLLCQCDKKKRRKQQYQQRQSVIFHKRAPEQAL

In the case of `C1=CCN(Cc2cccs2)CC1.Cl` [Compound 6A, 1-[(thiophen-2-yl)methyl]-1,2,3,6-tetrahydropyridin-1-ium chloride], at M3 muscarinic receptor, the Emax worked out at 13 ± 1%, the “effect on forskolin-stimulated production of cAMP” value is “inhibited cAMP production”, the EC50 is 7.76 µM and the τ is 0.17 ± 0.02. At M3 muscarinic receptor, the RAi result is “+inf” and the Kd is 10 µM. Moreover, the RAi at M4 muscarinic receptor [1] is given as 0. For the same molecule, on M4 muscarinic receptor [2], the RAi is 0 and the “accumulation of IPX” value was “did not stimulate IPX accumulation”. Moreover, at M2 muscarinic receptor, the RAi came to 0 and the “accumulation of IPX” value is “did not stimulate IPX accumulation”.
Consider `C[N+]1(Cc2cccs2)CC=CCC1.[I-]` (stereo not shown) [Compound 7A, 1-methyl-1-[(thiophen-2-yl)methyl]-1,2,3,6-tetrahydropyridin-1-ium iodide], for which, on M3 muscarinic receptor, the Emax amounted to 16 ± 1%; the “effect on forskolin-stimulated production of cAMP” value is given as “inhibited cAMP production”; the midpoint of the response, the EC50, lay at 8.71 µM; the τ was determined as 0.22 ± 0.02. Besides, on M3 muscarinic receptor, the RAi entry is on record as “+inf” and the Kd is 10 µM. For the same molecule, the RAi at M4 muscarinic receptor [1] was determined as 0. In addition, on M4 muscarinic receptor [2], the RAi stood at 0 and the “accumulation of IPX” value is recorded as “did not stimulate IPX accumulation”. On M2 muscarinic receptor, the RAi is reported as 0 and the “accumulation of IPX” value was “did not stimulate IPX accumulation”.
Take `C[N+](C)(C)CCOC(N)=O` [carbachol, reference compound]: at M4 muscarinic receptor [1], the “E′MAX” value was 1.78 ± 0.05 fold over basal, the τ is 0.24 ± 0.03 and the “Δlog(τ/KA)” value was determined as 0. For the same molecule, on M4 muscarinic receptor [2], the “E′MAX” value is given as 4.5 ± 0.3 fold over basal, the τ is 4.8 ± 0.5, the “Δlog(τ/KA)” value is reported as 0 and the “accumulation of IPX” value was “stimulated accumulation of IPX”. At M2 muscarinic receptor, the “E′MAX” value turned out to be 4.9 ± 0.3 fold over basal, the τ was found to be 4.5 ± 0.5, the “Δlog(τ/KA)” value came to 0 and the “accumulation of IPX” value is “stimulated accumulation of IPX”.
Consider `O=C1CCCN1CC#CCN1CCCC1` [oxotremorine, reference compound], for which, at M4 muscarinic receptor [1], the EC50 is 0.162 µM, the Kd is 0.2 µM, the “E′MAX” value is given as 1.58 ± 0.04 fold over basal and the τ worked out at 0.17 ± 0.02. Also, at M4 muscarinic receptor [1], the RAi was determined as 4.69 ± 0.17 and the “Δlog(τ/KA)” value is given as −0.67 ± 0.06. Also, on M4 muscarinic receptor [2], the “E′MAX” value is 4.0 ± 0.3 fold over basal, the τ is given as 2.5 ± 0.2, the RAi is listed as 3.50 ± 0.33 and the “Δlog(τ/KA)” value is −0.54. At M2 muscarinic receptor, the EC50 stood at 0.0708 µM, the Kd is 0.2 µM, the “E′MAX” value worked out at 4.1 ± 0.3 fold over basal and the τ is recorded as 1.9 ± 0.2. Besides, at M2 muscarinic receptor, the RAi came out at 2.41 ± 0.22 and the “Δlog(τ/KA)” value is on record as −0.38 ± 0.05.
